Assay results published in US10945980B2, “Treatment for myopia” (The University of Newcastle, priority 2016, dated 2021).

Columns and labels:
Type in all cases: in vivo, guinea pig (Cavia porcellus)
[1] = tested on: lens-induced myopia in guinea pigs; assay: Intravitreal L-arginine in lens-induced (−6D) myopia, 3 days; conditions: 0.2 mM L-arginine daily intravitreal at 7, 8, 9 days of age, −6D lens 3 days; not significant p=0.169
[2] = tested on: lens-induced myopia in guinea pigs; assay: L-arginine eye drops in −6D lens-induced myopia
Description: Guinea pigs (pigmented variety, Cavia porcellus) were bred, housed, and raised as described in Example 1. Lights were on a 12 hr light 12 hr dark cycle. The University of Newcastle Animal Care and ethics Committee approved all procedures.
(§1) Two experimental protocols were employed (see Table 4). In Experiment 1, young guinea pigs wore a −6D lens on one eye from 5-12 days of age. They were randomly divided within each litter into two groups of 10 animals each, and received either a drop of L-Arginine (100 mM, 1.7%) in Saline (pH 7.4) or Saline alone (0.9%, pH 7.4) twice per day in the eye wearing the lens (Table 4). Drops were administered at the beginning of their light cycle and again approximately 6 hrs later in the middle of their day cycle. Lenses were removed during the drop administration which occurred under dim red light or in darkness. A single large drop was bathed on the cornea for 3 min in the lens-wearing eye in hand held animals. A clean lens was then reintroduced onto the eye. In Experiment 2, 14 guinea pigs were given eye drops in the same manner as in Experiment 1, but in both eyes and without any lens-wear, to determine the effect of the eye drops on normal eye growth. Animals received one drop of either 1.7% L-arginine (n=7) or atropine (Minims Atropine Sulphate 1%, Bausch & Lomb, preservative free, n=7) in one eye and saline (0.9%) in the other eye twice per day from 9-16 days of age.
(§2) In Experiment 1, at the end of the lens-wearing period, at 12 days of age just before the morning lights came on, both eyes were cyclopleged (1% Cyclopentolate—to paralyse the focussing muscles of the eye to a resting state) and 1.25 hours later, refractive error (RE) was measured. Animals were then anaesthetised with gaseous anaesthetic (1.5% isoflurane in oxygen) and eye length measures were taken in both eyes with high frequency ultrasound as described in Example 1. Biometry measures were also taken in the same manner before the lens wear period at 5 days of age. [No refractive measures were done at 5 days of age as cycloplegia could have interfered with the drug or lens response]. In Experiment 2, refractive error and eye length using ultrasound were measured in the same manner at 17 days of age, 24 hours after the previous drop was administered.
In Experiment 1, lens-induced myopia was achieved by attaching −6D concave lenses to matching Velcro arcs glued above and below the experimental eye as previously described (Howlett & McFadden, 2009). Lenses were exchanged with a clean lens after drop administration.
(§3) After cycloplegia was induced, refractive error was measured in each eye using an Autorefractor (Nidek AR-20, Japan). The spherical equivalent was calculated as the average of the sphere plus half the cylinder as is normal in clinical practice. All reported refractive errors are the spherical equivalent. Next, ocular length was measured using high frequency ultrasound (20 MHz) as previously described (McFadden et al, 2004). At least 20 traces were recorded for each eye and distances were averaged for at least 10 of these recordings. Peaks from the recordings were selected for the back of the cornea, the crystalline lens, and the vitreous chamber, and the layers at the back of the eye: the retina, choroid, and sclera. Ocular length was defined as the summed measurement from the front of the cornea to the back of the sclera.
(§4) Differences between the two eyes were analysed by a 2-tailed T-tests. The mean of calculated differences between the two eyes is referred to as relative myopia or relative ocular length and the difference in the change in ocular length in the treated compared to the untreated eye as relative growth.

[3] = tested on: guinea pig eyes not form deprived; assay: Intravitreal L-arginine in eyes not form deprived (control groups of Example 2); conditions: 2.2 mM L-arginine vs vehicle, no FD
Description: (§5) Animals were assigned to one of seven treatment groups (Table 1). From seven days of age, five of these groups were form deprived in the right eye for 3 days with a diffuser (two groups wore no diffusers and served as controls for form deprived animals). Six groups of animals were intravitreally injected with either L-arginine or physiological saline once per day, just before lights came on at 10 am. One group wore diffusers, but received no injection as a control. At ten days of age, cycloplegia was induced in all animals and refractive error and ocular components were measured. Two retinas, one a saline control and another that had been injected with the highest dose of L-arginine, were analysed by histochemistry for morphological markers of L-arginine induced toxicity.
To establish the size of the guinea pig vitreous, and thus the molarity of the substrate within the eye, ten vitreous chambers were extracted from ten eyes. The volume of the vitreous was 125 μl. Based on this, three drug doses of L-arginine were employed: low (0.4 mM), medium (2.2 mM) and high (non-toxic: 9.3 mM) (See Table 1). […]
(§6) Cycloplegia was induced as described in Example 1, and refractive error subsequently measured as described in Example 1.
Ocular length and axial components were also determined as described in Example 1. […]

[4] = tested on: normal eye growth in guinea pigs; assay: Eye drops on normal growth and emmetropization (no lens wear); conditions: eye drops twice daily 9-16 days of age
Method: as §1, §2, §3, §4

[5] = tested on: form deprivation myopia in guinea pigs; assay: Intravitreal L-arginine in form deprivation (FD) myopia, 3 days diffuser wear
Method: Fifty-seven pigmented guinea pigs (Cavia porcellus) were sourced from the University of Newcastle and housed as described in Example 1. Animals were provided with food and water ad libitum and the room temperature was maintained at 22° C. The University of Newcastle under Australian legislative requirements approved all procedures.
Animals wore classical form diffusers made of translucent moulded Perspex (0.8 mm thickness, 24% transmission) on their right eyes. Diffusers were mounted onto plastic washers backed with Velcro® and attached to mating Velcro® arcs which were affixed above and below the eye.
as §5
To establish the size of the guinea pig vitreous, and thus the molarity of the substrate within the eye, ten vitreous chambers were extracted from ten eyes. The volume of the vitreous was 125 μl. Based on this, three drug doses of L-arginine were employed: low (0.4 mM), medium (2.2 mM) and high (non-toxic: 9.3 mM) (See Table 1). A 30 gauge Hamilton syringe was used to slowly inject into the vitreous through the temporal sclera of right eyes, approximately 2 mm posterior to the limbus. All injections were 10 μl of either physiological saline (0.9%) or L-arginine dissolved in saline (pH 7.4 for all injections).
as §6
Ocular length and axial components were also determined as described in Example 1.
The data presented are means±standard errors of the mean. All figures and statistics are based on the difference between the lens-wearing eye and the fellow non lens-wearing eye and are referred to as relative refractive error and relative ocular distances. Statistical comparisons between lens wearing groups were based on one way ANOVAs followed by Holm-Sidak post hoc tests to account for family-wise error. Correlations were based on Pearson's regression analysis. Statistical analysis used Prism®, Graph Pad Software, Inc. V 6.

N=C(N)NCCC[C@H](N)C(=O)O [L-arginine]
interocular difference in refractive error (lens-wearing eye more hyperopic than fellow eye) [1]: 2.00 D | animals that did not develop myopia in the lens-wearing eye ([2]; 1.7% (100 mM) LA eye drops twice daily, −6D lens): 7/10 | relative eye growth (mean growth in ocular length) across all animals ([2]; 1.7% LA eye drops twice daily, between 5 and 12 days of age, −6D lens, p=0.01 vs saline): 42±17 μm | relative growth in the 70% of animals which failed to develop myopia ([2]; 1.7% LA eye drops twice daily, between 5 and 12 days of age, p=0.44): 10±12 μm | animals protected from developing myopia ([2]; 1.7% LA eye drops twice daily, −6D lens): 70% | relative myopia in the 7 animals that did not develop myopia ([2]; 1.7% LA eye drops twice daily, −6D lens, p=0.000 vs saline): −2.5±0.7 D | relative myopia, mean across all 10 animals ([2]; 1.7% LA eye drops twice daily, −6D lens, p=0.007 vs saline): −3.6±0.8 D | mean myopia as percent of that in control animals ([2]; 1.7% LA eye drops, the 70% of animals protected): 37% | mean refractive error in untreated eyes ([2]; untreated fellow eyes of LA group at 12 days of age, 1.7% LA eye drops twice daily in the other eye): +5.2±0.5 D | difference in relative refractive error between the two groups that were not form deprived ([3]; daily 10 μl intravitreal injection for 3 days, p=0.46): −0.2 D | difference in ocular length between groups not form deprived ([3]; intravitreal, p=0.44): 83 μm | ocular length on average ([4]; measured at 17 days, p=0.22 between groups): 8.124 mm | mean refractive error, both eyes averaged ([4]; measured at 17 days, p=0.32 between groups): +4.43 | effect on refractive error (drug eye vs saline eye) ([4]; no lens, 1.7% LA (p=0.69) or 1% Atropine (p=0.40)): did not affect the refractive error of the eye | difference between the two eyes in ocular length (drug eye vs saline control eye) ([4]; LA p=0.39, ATR p=0.42): −33 μm | relative refractive error compared with animals that had no form deprivation ([5]; FD 2.2 mM and FD 9.3 mM groups, daily intravitreal injection, 3 days FD): not significantly different from animals that had no form deprivation | ocular length, shortening relative to FD NIL ([5]; FD 9.3 mM (high dose, intravitreal) vs form deprivation only, p<0.001): −484 μm | vitreous chamber depth, difference FD 0 mM vs FD 9.3 mM ([5]; FD + vehicle vs FD + 9.3 mM L-arginine, did not reach significance, p=0.12): 215 μm | choroid thickness, FD 0 mM thinner than FD 9.3 mM ([5]; FD + vehicle vs FD + 9.3 mM L-arginine, not significant, p=0.14): 31 μm | ocular length, FD 0 mM greater than FD 9.3 mM ([5]; FD + vehicle vs FD + high dose L-arginine 9.3 mM intravitreal, p<0.001): 403 μm | vitreous chamber depth, FD NIL longer than FD 9.3 mM ([5]; form deprivation only vs FD + 9.3 mM L-arginine intravitreal, p<0.001): 484 μm | choroid thickness, difference FD NIL vs FD 9.3 mM ([5]; form deprivation only vs FD + 9.3 mM L-arginine intravitreal, p=0.03): −39 μm
